Source: patent publication US20250376464A1 (Trawsfynydd Therapeutics, Inc., priority 2022, published 2025)

These compounds were tested against SARS-CoV2-Mpro (Severe acute respiratory syndrome coronavirus 2 (2019-nCoV) (SARS-CoV-2), UniProt P0DTD1) (assay: Primary assay: SARS-CoV2-Mpro enzymatic activity inhibition). Conditions: enzyme preincubated with compound for 20 min; slope of linear portion of signal.
Format: biochemical
Experimental: Example A. Primary Assay Used to Determine Potency of SARS-CoV2-Mpro Enzymatic Activity Inhibition
• (1) Deliver 2× Enzyme • (2) Deliver buffer into No Enzyme wells • (3) Deliver compounds in 100% DMSO by using Acoustic technology (Echo550; nanoliter range) • (4) Incubate for 20 min • (5) Deliver 2× Substrate to initiate the reaction • (6) Spin & shake, start measuring in EnVision at rt; 5 min interval for 25 (2 hours) • (7) Analyze data by taking slope (signal/time) of linear portion of measurement • (8) Slope is calculated by using Excel, and curve fits are performed using Prism software.
The % inhibition was then used to calculate the IC50 values. The IC50 values are shown in Table A, wherein “A” corresponds to IC50<10.0 nm, “B” corresponds to 10.0 nm≤IC50<50.0 nm, “C” corresponds to 50.0 nm≤IC50<100.0 nm, “D” corresponds to 100.0 nm≤IC50<500.0 nm, and “E” corresponds to 500.0 nm≤IC50<1000.0 nm, and “F” corresponds to 1000.0 nm≤IC50.

Row | Structure (SMILES) | IC50 [nM]
1 | CC(C)(C)[C@H](NC(=O)C(F)(F)F)C(=O)N1CCC2(CC2)CC1C(=O)N[C@H](C#N)C[C@@H]1CCNC1=O (mixture of isomers) [Compound 206, N—((S)-1-Cyano-2-((S)-2-oxopyrrolidin-3-yl)ethyl)-6-((S)-3,3-dimethyl-2-(2,2,2-trifluoroacetamido)butanoyl)-6-azaspiro[2.5]octane-5-carboxamide] | 10 to 50
2 | CC(C)(C)[C@H](NS(C)(=O)=O)C(=O)N1C[C@H]2C([C@H]1C(=O)N[C@H](C#N)C[C@@H]1CCNC1=O)C2(C)C (stereo in doubt) [Compound 201, (1R,2S,5S)—N—((S)-1-Cyano-2-((S)-2-oxopyrrolidin-3-yl)ethyl)-3-((S)-3,3-dimethyl-2-(methylsulfonamido)butanoyl)-6,6-dimethyl-3-azabicyclo[3.1.0]hexane-2-carboxamide] | 10 to 50
3 | CC(C)(C)[C@H](NS(=O)(=O)CC(F)(F)F)C(=O)N1C[C@H]2C([C@H]1C(=O)N[C@H](C#N)C[C@@H]1CCNC1=O)C2(C)C (stereo in doubt) [Compound 209, (1R,2S,5S)—N-[(1S)-1-cyano-2-[(3S)-2-oxopyrrolidin-3-yl]ethyl]-3-[(2S)-3,3-dimethyl-2-(2,2,2-trifluoroethylsulfonylamino)butanoyl]-6,6-dimethyl-3-azabicyclo[3.1.0]hexane-2-carboxamide] | 10 to 50
4 | CC(C)(C)[C@H](NC(=O)C(F)(F)F)C(=O)N1C[C@H]2C([C@H]1C(=O)N[C@H](C#N)CC1C(=O)Nc3ccccc31)C2(C)C (stereo in doubt) [Compound 217, (1R,2S,5S)—N-((1S)-1-Cyano-2-(2-oxoindolin-3-yl)ethyl)-3-((S)-3,3-dimethyl-2-(2,2,2-trifluoroacetamido)butanoyl)-6,6-dimethyl-3-azabicyclo[3.1.0]hexane-2-carboxamide] | < 10
5 | CC(C)(C)[C@H](NC(=O)C(F)(F)F)C(=O)N1C[C@H]2C([C@H]1C(=O)NC(C#N)CC1(F)C(=O)Nc3ccccc31)C2(C)C (stereo in doubt) [Compound 227, (1S,2S,5S)-N-[1-cyano-2-(3-fluoro-2-oxo-indolin-3-yl)ethyl]-3-[(2S)-3,3-dimethyl-2-[(2,2,2-trifluoroacetyl)amino]butanoyl]-6,6-dimethyl-3-azabicyclo[3.1.0]hexane-2-carboxamide] | 10 to 50
6 | CC(C)(C)[C@H](NC(=O)C(F)(F)F)C(=O)N1C[C@H]2C(C1C(=O)N[C@H](C#N)CC1(F)C(=O)Nc3ccccc31)C2(C)C (stereo in doubt) [Compound 228, (1S,2S,5S)-N-[(1S)-1-cyano-2-(3-fluoro-2-oxo-indolin-3-yl)ethyl]-3-[(2S)-3,3-dimethyl-2-[(2,2,2-trifluoroacetyl)amino]butanoyl]-6,6-dimethyl-3-azabicyclo[3.1.0]hexane-2-carboxamide] | 10 to 50
7 | Cc1ccc2c(c1)C(F)(CC(C#N)NC(=O)C1C3[C@H](CN1C(=O)[C@@H](NC(=O)C(F)(F)F)C(C)(C)C)C3(C)C)C(=O)N2 (stereo in doubt) [Compound 229, (1S,2S,5S)-N-[1-cyano-2-(3-fluoro-5-methyl-2-oxo-indolin-3-yl)ethyl]-3-[(2S)-3,3-dimethyl-2-[(2,2,2-trifluoroacetyl)amino]butanoyl]-6,6-dimethyl-3-azabicyclo[3.1.0]hexane-2-carboxamide] | 10 to 50
8 | Cc1ccc2c(c1)C(CC(C#N)NC(=O)C1C3[C@H](CN1C(=O)[C@@H](NC(=O)C(F)(F)F)C(C)(C)C)C3(C)C)C(=O)N2 (stereo in doubt) [Compound 230, (1S,2S,5S)-N-[1-cyano-2-(5-methyl-2-oxo-indolin-3-yl)ethyl]-3-[(2S)-3,3-dimethyl-2-[(2,2,2-trifluoroacetyl)amino]butanoyl]-6,6-dimethyl-3-azabicyclo[3.1.0]hexane-2-carboxamide] | 10 to 50
9 | CN(C(=O)[C@@H]1C2[C@H](CN1C(=O)[C@@H](NC(=O)C(F)(F)F)C(C)(C)C)C2(C)C)[C@H](C#N)CC1C(=O)Nc2ccccc21 (stereo in doubt) [Compound 231, (1S,2S,5S)-N-[(1S)-1-cyano-2-(2-oxoindolin-3-yl)ethyl]-3-[(2S)-3,3-dimethyl-2-[(2,2,2-trifluoroacetyl)amino]butanoyl]-N,6,6-trimethyl-3-azabicyclo[3.1.0]hexane-2-carboxamide] | 50 to 100
10 | CC(C)(C)[C@H](NC(=O)C(F)(F)F)C(=O)N1C[C@H]2C([C@H]1C(=O)N[C@H](C#N)CC1C(=O)Nc3ccc(Br)cc31)C2(C)C (stereo in doubt) [Compound 232, (1S,2S,5S)-N-[(1S)-2-(5-bromo-2-oxo-indolin-3-yl)-1-cyano-ethyl]-3-[(2S)-3,3-dimethyl-2-[(2,2,2-trifluoroacetyl)amino]butanoyl]-6,6-dimethyl-3-azabicyclo[3.1.0]hexane-2-carboxamide] | 10 to 50
11 | CC(C)(C)[C@H](NC(=O)C(F)(F)F)C(=O)N1C[C@H]2C([C@H]1C(=O)N[C@H](C#N)CC1C(=O)Nc3cc(Br)ccc31)C2(C)C (stereo in doubt) [Compound 233, (1S,2S,5S)-N-[(1S)-2-(6-bromo-2-oxo-indolin-3-yl)-1-cyano-ethyl]-3-[(2S)-3,3-dimethyl-2-[(2,2,2-trifluoroacetyl)amino]butanoyl]-6,6-dimethyl-3-azabicyclo[3.1.0]hexane-2-carboxamide] | 50 to 100
12 | Cc1cccc2c1C(C[C@@H](C#N)NC(=O)[C@@H]1C3[C@H](CN1C(=O)[C@@H](NC(=O)C(F)(F)F)C(C)(C)C)C3(C)C)C(=O)N2 (stereo in doubt) [Compound 234, (1S,2S,5S)-N-[(1S)-1-cyano-2-(4-methyl-2-oxo-indolin-3-yl)ethyl]-3-[(2S)-3,3-dimethyl-2-[(2,2,2-trifluoroacetyl)amino]butanoyl]-6,6-dimethyl-3-azabicyclo[3.1.0]hexane-2-carboxamide] | 500 to 1000
13 | CC(C)(C)[C@H](NC(=O)C(F)(F)F)C(=O)N1C[C@H]2C([C@H]1C(=O)N[C@H](C#N)CC1C(=O)Nc3c(Cl)cccc31)C2(C)C (stereo in doubt) [Compound 235, (1S,2S,5S)-N-[(1S)-2-(7-chloro-2-oxo-indolin-3-yl)-1-cyano-ethyl]-3-[(2S)-3,3-dimethyl-2-[(2,2,2-trifluoroacetyl)amino]butanoyl]-6,6-dimethyl-3-azabicyclo[3.1.0]hexane-2-carboxamide] | < 10
14 | CC(C)(C)[C@H](NC(=O)C(F)(F)F)C(=O)N1C[C@H]2C([C@H]1C(=O)N[C@H](C#N)CC1C(=O)Nc3ccc(F)cc31)C2(C)C (stereo in doubt) [Compound 236, (1S,2S,5S)-N-[(1S)-1-cyano-2-(5-fluoro-2-oxo-indolin-3-yl)ethyl]-3-[(2S)-3,3-dimethyl-2-[(2,2,2-trifluoroacetyl)amino]butanoyl]-6,6-dimethyl-3-azabicyclo[3.1.0]hexane-2-carboxamide] | 10 to 50
15 | CC(C)(C)[C@H](NS(C)(=O)=O)C(=O)N1C[C@H]2C([C@H]1C(=O)N[C@H](C#N)CC1C(=O)Nc3ccccc31)C2(C)C (stereo in doubt) [Compound 237, (1S,2S,5S)-N-[(1S)-1-cyano-2-(2-oxoindolin-3-yl)ethyl]-3-[(2S)-2-(methanesulfonamido)-3,3-dimethyl-butanoyl]-6,6-dimethyl-3-azabicyclo[3.1.0]hexane-2-carboxamide] | < 10
16 | CC(C)(C)[C@H](NS(C)(=O)=O)C(=O)N1C[C@H]2C([C@H]1C(=O)N[C@H](C#N)C[C@@H]1C(=O)Nc3ccccc31)C2(C)C (stereo in doubt) [Compound 238, (1S,2S,5S)-N-[(1S)-1-cyano-2-(2-oxoindolin-3-yl)ethyl]-3-[(2S)-2-(methanesulfonamido)-3,3-dimethyl-butanoyl]-6,6-dimethyl-3-azabicyclo[3.1.0]hexane-2-carboxamide] | < 10
17 | CC(C)(C)[C@H](NC(=O)C(F)(F)F)C(=O)N1C[C@H]2C([C@H]1C(=O)N[C@H](C#N)C[C@]1(C)C(=O)Nc3ccccc31)C2(C)C (stereo in doubt) [Compound 239, (1S,2S,5S)-N-[1-cyano-2-(3-methyl-2-oxo-indolin-3-yl)ethyl]-3-[(2S)-3,3-dimethyl-2-[(2,2,2-trifluoroacetyl)amino]butanoyl]-6,6-dimethyl-3-azabicyclo[3.1.0]hexane-2-carboxamide] | ≥ 1000
18 | COC(=O)N[C@H](C(=O)N1C[C@H]2C([C@H]1C(=O)N[C@H](C#N)CC1C(=O)Nc3ccccc31)C2(C)C)C(C)(C)C (stereo in doubt) [Compound 243, Methyl N-[(1S)-1-[(1S)-2-[[(1S)-1-cyano-2-(2-oxoindolin-3-yl)ethyl]carbamoyl]-6,6-dimethyl-3-azabicyclo[3.1.0]hexane-3-carbonyl]-2,2-dimethyl-propyl]carbamate] | < 10
19 | CCOC(=O)N[C@H](C(=O)N1C[C@H]2C([C@H]1C(=O)N[C@H](C#N)CC1C(=O)Nc3ccccc31)C2(C)C)C(C)(C)C (stereo in doubt) [Compound 244, Ethyl N-[(1S)-1-[(1S)-2-[[(1S)-1-cyano-2-(2-oxoindolin-3-yl)ethyl]carbamoyl]-6,6-dimethyl-3-azabicyclo[3.1.0]hexane-3-carbonyl]-2,2-dimethyl-propyl]carbamate] | 10 to 50
20 | CCOC(=O)N[C@@H](CC(C)C)C(=O)N1C[C@H]2C([C@H]1C(=O)N[C@H](C#N)CC1C(=O)Nc3ccccc31)C2(C)C (stereo in doubt) [Compound 246, ethyl N-[(1S)-1-[(1S,2S,5S)-2-[[(1S)-1-cyano-2-(2-oxoindolin-3-yl)ethyl]carbamoyl]-6,6-dimethyl-3-azabicyclo[3.1.0]hexane-3-carbonyl]-3-methyl-butyl]carbamate] | 10 to 50
